Results on 7 molecules are retold here after ChEMBL document CHEMBL2073897, “Major role of organic anion transporter 3 in the transport of indoxyl sulfate in the kidney” (Kidney Int, 2002).

Data set [1] addresses T1, Organic anion transporter 3 (OAT3) (Rattus norvegicus, UniProt Q9R1U7).
T1 sequence (Q9R1U7 whole entry): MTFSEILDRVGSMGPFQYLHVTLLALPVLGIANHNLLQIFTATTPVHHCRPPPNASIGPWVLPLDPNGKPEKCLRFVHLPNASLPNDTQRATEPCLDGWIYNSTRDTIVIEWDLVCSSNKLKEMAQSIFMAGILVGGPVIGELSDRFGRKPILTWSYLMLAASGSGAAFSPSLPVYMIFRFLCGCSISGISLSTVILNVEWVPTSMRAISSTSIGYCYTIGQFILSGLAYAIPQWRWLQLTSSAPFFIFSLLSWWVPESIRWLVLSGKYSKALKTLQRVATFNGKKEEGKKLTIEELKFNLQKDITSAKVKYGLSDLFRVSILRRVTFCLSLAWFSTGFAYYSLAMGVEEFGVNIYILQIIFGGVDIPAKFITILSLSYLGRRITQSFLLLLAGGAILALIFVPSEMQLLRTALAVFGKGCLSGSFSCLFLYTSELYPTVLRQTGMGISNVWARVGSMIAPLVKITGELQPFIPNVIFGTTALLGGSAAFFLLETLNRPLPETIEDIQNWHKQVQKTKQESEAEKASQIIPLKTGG
Description: TP_TRANSPORTER: inhibition of Indoxyl sulfate uptake (indoxyl sulfate: 2 uM, CMPF: 1000 uM) in Xenopus laevis oocytes. On the set-up: scale not given: the % may be the effect or the level left. The format is functional, cell-based, Oocyte. The conditions noted are these: probe indoxyl sulfate (2 uM), read-out: Activity.

Data set [2] concerns the target T1, Organic anion transporter 3 (OAT3). The experiment in a line: TP_TRANSPORTER: inhibition of Indoxyl sulfate uptake (indoxyl sulfate: 2 uM, 4-Hydroxyphenylacetic acid: 1000 uM) in Xenopus laevis oocytes. More on the design: scale not given: the % may be the effect or the level left. The format is functional, cell-based, Oocyte. Conditions: probe indoxyl sulfate (2 uM), read-out: Activity.

Data set [3] has as its target T2, Organic anion transporter 3 (Rattus norvegicus, UniProt Q9R1U7).
T2 sequence (Q9R1U7 whole entry): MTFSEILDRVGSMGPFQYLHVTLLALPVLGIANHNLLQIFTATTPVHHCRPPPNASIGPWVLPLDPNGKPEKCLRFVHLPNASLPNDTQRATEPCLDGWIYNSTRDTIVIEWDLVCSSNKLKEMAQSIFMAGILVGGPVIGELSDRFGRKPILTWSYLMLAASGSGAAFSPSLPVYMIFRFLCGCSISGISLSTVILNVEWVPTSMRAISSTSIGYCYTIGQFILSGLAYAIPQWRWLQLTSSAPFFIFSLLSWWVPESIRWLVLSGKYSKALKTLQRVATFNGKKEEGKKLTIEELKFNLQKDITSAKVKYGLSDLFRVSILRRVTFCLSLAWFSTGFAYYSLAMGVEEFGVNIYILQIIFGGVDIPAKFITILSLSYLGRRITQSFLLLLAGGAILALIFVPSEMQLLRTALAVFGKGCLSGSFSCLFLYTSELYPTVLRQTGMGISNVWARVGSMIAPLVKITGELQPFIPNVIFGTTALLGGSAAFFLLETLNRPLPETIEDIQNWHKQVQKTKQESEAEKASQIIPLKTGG
Description: TP_TRANSPORTER: inhibition of Indoxyl sulfate uptake (indoxyl sulfate: 2 uM, Hippurate: 1000 uM) in Xenopus laevis oocytes. It counts as functional, cell-based. More on the design: scale not given: the % may be the effect or the level left. The conditions noted are these: oocyte.

Data set [4] concerns the target T1, Organic anion transporter 3 (OAT3). The experiment in a line: TP_TRANSPORTER: inhibition of Indoxyl sulfate uptake (indoxyl sulfate: 2 uM, Indoleacetic acid: 1000 uM) in Xenopus laevis oocytes. It counts as functional, cell-based, Oocyte. More on the design: scale not given: the % may be the effect or the level left. Conditions: probe indoxyl sulfate (2 uM), read-out: Activity.

For data set [5] the target is unchanged. Description: TP_TRANSPORTER: inhibition of Indoxyl sulfate uptake (indoxyl sulfate: 2 uM, 2-Hydroxycinnamic acid: 1000 uM) in Xenopus laevis oocytes. The format is functional, cell-based, Oocyte. More on the design: scale not given: the % may be the effect or the level left. The conditions noted are these: probe indoxyl sulfate (2 uM), read-out: Activity.

Data set [6] has the same target. The experiment in a line: TP_TRANSPORTER: inhibition of Indoxyl sulfate uptake (indoxyl sulfate: 2 uM, 4-Hydroxybenzoic acid: 1000 uM) in Xenopus laevis oocytes. Conditions: probe indoxyl sulfate (2 uM), read-out: Activity. On the set-up: scale not given: the % may be the effect or the level left. The format is functional, cell-based, Oocyte.
Substrate in data set [7]: O=S(=O)(O)Oc1c[nH]c2ccccc12
Description: TP_TRANSPORTER: uptake in Xenopus laevis oocytes. The format is functional, cell-based, Oocyte.

On to `CCCc1oc(CCC(=O)O)c(C(=O)O)c1C`, for which the activity at 1000 µM in data set [1] worked out at 8.38%. Regarding `O=C(O)Cc1ccc(O)cc1`, the activity at 1000 µM in data set [2] was 29.7%.

As to `O=C(O)CNC(=O)c1ccccc1` [HIPPURIC ACID], the Activity in data set [3] came to 24.6%. Turning to `CC(=O)Oc1c[nH]c2ccccc12` [INDOLE ACETATE], the activity at 1000 µM in data set [4] came out at 51.2%. On to `O=C(O)/C=C/c1ccccc1O` [O-COUMARIC ACID], for which, in data set [5], the activity at 1000 µM was found to be 39.5%. As for `O=C(O)c1ccc(O)cc1` [PARABEN], the activity at 1000 µM in data set [6] amounted to 22.1%.

B1: Organic anion transporter 3 (Rattus norvegicus) (protein)
chain: MTFSEILDRVGSMGPFQYLHVTLLALPVLGIANHNLLQIFTATTPVHHCRPPPNASIGPWVLPLDPNGKPEKCLRFVHLPNASLPNDTQRATEPCLDGWIYNSTRDTIVIEWDLVCSSNKLKEMAQSIFMAGILVGGPVIGELSDRFGRKPILTWSYLMLAASGSGAAFSPSLPVYMIFRFLCGCSISGISLSTVILNVEWVPTSMRAISSTSIGYCYTIGQFILSGLAYAIPQWRWLQLTSSAPFFIFSLLSWWVPESIRWLVLSGKYSKALKTLQRVATFNGKKEEGKKLTIEELKFNLQKDITSAKVKYGLSDLFRVSILRRVTFCLSLAWFSTGFAYYSLAMGVEEFGVNIYILQIIFGGVDIPAKFITILSLSYLGRRITQSFLLLLAGGAILALIFVPSEMQLLRTALAVFGKGCLSGSFSCLFLYTSELYPTVLRQTGMGISNVWARVGSMIAPLVKITGELQPFIPNVIFGTTALLGGSAAFFLLETLNRPLPETIEDIQNWHKQVQKTKQESEAEKASQIIPLKTGG
Turning to B1, the Km (commonly the concentration of substrate that gives half-maximal velocity) in data set [7] was determined as 158 µM.
